These results are taken from ChEMBL document CHEMBL1145163, “Structure-based design, synthesis, and memapsin 2 (BACE) inhibitory activity of carbocyclic and heterocyclic peptidomimetics” (J Med Chem, 2005).

Experiment [1] has as its target T1, Cathepsin D (Homo sapiens, UniProt P07339). Put plainly: Inhibitory activity against human Cathepsin D at 0.01 uM.
Experiment [2] has as its target T1, Cathepsin D. As to the kind of experiment: Inhibitory concentration against human Cathepsin D.
The target of experiment [3] is T2, Beta-secretase 1 (Homo sapiens, UniProt P56817). Put plainly: Inhibitory concentration against human Membrane-associated aspartic protease 2.
T2 sequence (P56817 whole entry): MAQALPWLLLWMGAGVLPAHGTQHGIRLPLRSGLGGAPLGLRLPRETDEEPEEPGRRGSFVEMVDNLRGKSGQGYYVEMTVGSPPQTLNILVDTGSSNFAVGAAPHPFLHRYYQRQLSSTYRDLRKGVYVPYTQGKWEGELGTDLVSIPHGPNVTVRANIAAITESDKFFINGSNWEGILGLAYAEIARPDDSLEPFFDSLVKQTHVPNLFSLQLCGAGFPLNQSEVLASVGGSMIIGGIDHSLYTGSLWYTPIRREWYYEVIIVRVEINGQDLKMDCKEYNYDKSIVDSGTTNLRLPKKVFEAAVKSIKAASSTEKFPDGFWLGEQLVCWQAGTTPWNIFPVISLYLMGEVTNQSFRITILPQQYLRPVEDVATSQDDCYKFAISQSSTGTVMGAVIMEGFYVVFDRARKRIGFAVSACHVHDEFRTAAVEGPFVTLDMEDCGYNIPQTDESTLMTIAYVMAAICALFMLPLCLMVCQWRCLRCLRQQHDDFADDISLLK
The target in experiment [4] is T2, Beta-secretase 1. As to the kind of experiment: Inhibitory activity against human beta-site APP-cleaving enzyme 1 at 0.01 uM.

The structures appear in SMILES notation. Starred links: 1 amine or outer side, 2 acyl side, 3 side chain; linkers in the order of their positions; H or OH if unused. Non-standard residues stand in square brackets, D forms with d. Residues, ends and D or L forms follow the SMILES beside them. LeuΨ(S-CHOHCH2)Ala = CC(C)C[C@H](N[*:1])[C@@H](O)C[C@@H](C)C(=O)[*:2]; X1 = CC(C)C[C@H](N[*:1])[C@@H](O)[C@@H]1CCC[C@H]1C(=O)[*:2] Some results are limits rather than exact numbers.

T1 sequence (P07339 65-162 limits assumed): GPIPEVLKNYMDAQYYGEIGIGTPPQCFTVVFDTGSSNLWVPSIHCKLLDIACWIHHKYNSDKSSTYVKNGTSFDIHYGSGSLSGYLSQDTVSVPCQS
T1 sequence (P07339 169-412 limits assumed): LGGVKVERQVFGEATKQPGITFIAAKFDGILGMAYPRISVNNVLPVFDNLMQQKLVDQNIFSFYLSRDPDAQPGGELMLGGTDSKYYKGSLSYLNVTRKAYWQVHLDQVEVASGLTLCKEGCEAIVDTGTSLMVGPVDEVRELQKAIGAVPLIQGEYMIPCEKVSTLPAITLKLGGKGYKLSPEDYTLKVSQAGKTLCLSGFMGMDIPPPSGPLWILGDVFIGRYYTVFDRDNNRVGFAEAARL

For the compound `CC(C)C[C@H](NC(=O)[C@H](CC(N)=O)NC(=O)[C@@H](NC(=O)[C@@H](N)CCC(=O)O)C(C)C)[C@@H](O)[C@@H]1CCC[C@H]1C(=O)N[C@@H](C)C(=O)N[C@@H](CCC(=O)O)C(=O)N[C@@H](Cc1ccccc1)C(=O)O` [CARBOCYCLIC PEPTIDOMIMETIC] (H-EVN[X1]AEF-OH), at Cathepsin D [1], the inhibition (commonly the percentage by which the read-out fell short of the control) came to 90%. Also, the IC50 (in general, the concentration at which inhibition is half-maximal) against Cathepsin D [2] was under 10 nM; against Beta-secretase 1 [3], 16 nM.
Regarding `CC(C)C[C@H](NC(=O)[C@H](CC(N)=O)NC(=O)[C@@H](NC(=O)[C@@H](N)CCC(=O)O)C(C)C)[C@@H](O)C[C@@H](C)C(=O)N[C@@H](C)C(=O)O` (H-EVN[LeuΨ(S-CHOHCH2)Ala]A-OH), the IC50 was 98 nM against Cathepsin D [2] and 12 nM on Beta-secretase 1 [3].
Consider `C=C1C[C@@H]([C@H](O)[C@H](CC(C)C)NC(=O)[C@H](CCSC)NC(=O)[C@H](CC(C)C)NC(C)=O)[C@H](C(=O)N[C@@H](C)C(=O)O)C1`, for which the values for the IC50 against Cathepsin D [2] and at Beta-secretase 1 [3] were 430 nM and over 10000 nM, respectively.
The corresponding values for `CSCC[C@H](NC(=O)[C@H](CC(C)C)NC(C)=O)C(=O)N[C@@H](CC(C)C)[C@@H](O)[C@@H]1CCC[C@H]1C(=O)N[C@@H](C)C(=O)O` are 90 nM and 60 nM.
In the case of `CCCCNC(=O)[C@@H](NC(=O)[C@@H]1C(=O)N(CC)C[C@H]1[C@H](O)[C@H](CC(C)C)NC(=O)[C@H](CCSC)NC(=O)[C@H](CC(C)C)NC(C)=O)C(C)C`, the figures for the IC50 against Cathepsin D [2] and against Beta-secretase 1 [3] were 130 nM and 3350 nM, respectively.
Consider `CCCCNC(=O)[C@@H](NC(=O)[C@@H]1CN(C)C[C@H]1[C@H](O)[C@H](CC(C)C)NC(=O)[C@H](CCSC)NC(=O)[C@H](CC(C)C)NC(C)=O)C(C)C`, for which the IC50 on Cathepsin D [2] amounted to 1230 nM; at Beta-secretase 1 [3] it was 3440 nM.
At Cathepsin D [2], `CC(C)C[C@H](NC(=O)[C@H](CC(N)=O)NC(=O)[C@@H](NC(=O)[C@@H](N)CCC(=O)O)C(C)C)[C@@H](O)C[C@@H](C)C(=O)N[C@@H](C)C(=O)N[C@@H](CCC(=O)O)C(=O)N[C@@H](Cc1ccccc1)C(=O)O` (H-EVN[LeuΨ(S-CHOHCH2)Ala]AEF-OH) displayed an IC50 of 6 nM.
As to `CSCC[C@H](NC(=O)[C@H](CC(C)C)NC(C)=O)C(=O)N[C@@H](CC(C)C)[C@@H](O)[C@@H]1CCC[C@H]1C(=O)N[C@H](C(=O)O)C(C)C`, the IC50 on Cathepsin D [2] was found to be 25 nM; against Beta-secretase 1 [3], 190 nM.
For `CCCCNC(=O)[C@@H](NC(=O)[C@@H]1OCC[C@H]1[C@H](O)[C@H](CC(C)C)NC(=O)[C@H](CCSC)NC(=O)[C@H](CC(C)C)NC(C)=O)C(C)C`, the values for the IC50 on Cathepsin D [2] and on Beta-secretase 1 [3] were 280 nM and 9560 nM, respectively.
Turning to `CCCCNC(=O)[C@@H](NC(=O)[C@@H]1CCC[C@H]1[C@H](O)[C@H](CC(C)C)NC(=O)[C@H](CCSC)NC(=O)[C@H](CC(C)C)NC(C)=O)C(C)C`, the inhibition against Cathepsin D [1] was 100%. In addition, the results for the IC50 against Cathepsin D [2] and at Beta-secretase 1 [3] were under 10 nM and 25 nM, respectively.
`CCCCNC(=O)[C@H](C)NC(=O)[C@@H]1CCC[C@H]1[C@H](O)[C@H](CC(C)C)NC(=O)[C@H](CCSC)NC(=O)[C@H](CC(C)C)NC(C)=O` showed an inhibition on Cathepsin D [1] of 95%. Also, the IC50 on Cathepsin D [2] is under 10 nM; against Beta-secretase 1 [3], 185 nM.
The compound `CC(C)C[C@H](NC(=O)[C@H](CC(N)=O)NC(=O)[C@@H](NC(=O)[C@@H](N)CCC(=O)O)C(C)C)[C@@H](O)[C@@H]1CCC[C@H]1C(=O)N[C@@H](C)C(=O)O` (H-EVN[X1]A-OH) displayed an IC50 at Cathepsin D [2] of 6000 nM.
As for `CSCC[C@H](NC(=O)[C@H](CC(C)C)NC(C)=O)C(=O)N[C@@H](CC(C)C)[C@@H](O)[C@@H]1CC(=O)C[C@H]1C(=O)N[C@@H](C)C(=O)O`, the IC50 worked out at 1500 nM at Cathepsin D [2] and 720 nM on Beta-secretase 1 [3].
In turn, `CCCCNC(=O)[C@@H](NC(=O)[C@@H]1CC(=O)C[C@H]1[C@H](O)[C@H](CC(C)C)NC(=O)[C@H](CCSC)NC(=O)[C@H](CC(C)C)NC(C)=O)C(C)C` displayed an IC50 against Cathepsin D [2] of 56 nM.
Take `CCCCNC(=O)[C@@H]1CCC[C@H]1[C@H](O)[C@H](CC(C)C)NC(=O)[C@H](CCSC)NC(=O)[C@H](CC(C)C)NC(C)=O`: the concentration for half-maximal inhibition (IC50) at Cathepsin D [2] was found to be 60 nM; against Beta-secretase 1 [3] it was 1820 nM.
As for `CCCCNC(=O)[C@@H](NC(=O)[C@H]1[C@H]([C@H](O)[C@H](CC(C)C)NC(=O)[C@H](CCSC)NC(=O)[C@H](CC(C)C)NC(C)=O)CC(=O)N1C)C(C)C`, the inhibition against Beta-secretase 1 [4] stood at 79%. Moreover, the IC50 is 70 nM against Cathepsin D [2] and under 10 nM against Beta-secretase 1 [3].
On to `CC(C)C[C@H](NC(=O)[C@H](CC(N)=O)NC(=O)[C@@H](NC(=O)[C@@H](N)CCC(=O)O)C(C)C)[C@@H](O)[C@@H]1CCC[C@H]1C(=O)N[C@@H](C)C(=O)N[C@@H](CCC(=O)O)C(=O)O` (H-EVN[X1]AE-OH), for which the IC50 against Cathepsin D [2] stood at 60 nM; against Beta-secretase 1 [3], 40 nM.
